Results: patent US12552783B2, “Modulators of proteolysis and associated methods of use” (Arvinas Operations, Inc., priority 2018, dated 2026)

Target: KRas (Homo sapiens, UniProt P01116, G12C)
Assay: KRas degradation in SW1573 cells by Western blot, normalized to GAPDH (data of Table 14)
Type: cell-based
Conditions: SW1573 cells
Summary of the method: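 SW1573 cells, homozygous for the KRas G12C mutation and maintained in DMEM with 10% FBS and 1% penicillin-streptomycin, were seeded in 12-well plates, allowed to attach overnight at 37° C. under 5% CO2, then serum-starved for 24 hours before compound exposure. KRas levels were measured by Western blot, normalized to GAPDH, and compared with DMSO controls to give percent degradation, DC50 and Dmax.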

Structure (SMILES)	Percent Degradation at Indicated Concentration (μM) (0.03 μM)	Percent Degradation at Indicated Concentration (μM) (0.1 μM)	Percent Degradation at Indicated Concentration (μM) (0.3 μM)	Percent Degradation at Indicated Concentration (μM) (1 μM)	Dmax
C=CC(=O)N1CCN(c2nc(O[C@H](C)CN3CCC(OCCOCCOCCOCCOCCOc4ccc5c(c4)C(=O)N(C4CCC(=O)NC4=O)C5=O)CC3)nc3c(F)c(-c4cc(O)cc5ccccc45)c(Cl)cc23)CC1 (stereo partly drawn) [compound 430, 5-((14-((1-((2R)-2-((4-(4-acryloylpiperazin-1-yl)-6-chloro-8-fluoro-7-(3-hydroxynaphthalen-1-yl)quinazolin-2-yl)oxy)propyl)piperidin-4-yl)oxy)-3,6,9,12-tetraoxatetradecyl)oxy)-2-(2,6-dioxopiperidin-3-yl)isoindoline-1,3-dione]		C (Percent Degradation: C ≤ 35)	C (Percent Degradation: C ≤ 35)	C (Percent Degradation: C ≤ 35)	
C=CC(=O)N1CCN(c2nc(OC[C@@H]3C[C@@H](OCCOCCNc4cccc5c4C(=O)N(C4CCC(=O)NC4=O)C5=O)CN3C)nc3c2CCN(c2cccc4ccccc24)C3)C[C@@H]1CC#N (stereo partly drawn) [compound 516, 2-((2S)-1-acryloyl-4-(2-(((2S,4R)-4-(2-(2-((2-(2,6-dioxopiperidin-3-yl)-1,3-dioxoisoindolin-4-yl)amino)ethoxy)ethoxy)-1-methylpyrrolidin-2-yl)methoxy)-7-(naphthalen-1-yl)-5,6,7,8-tetrahydropyrido[3,4-d]pyrimidin-4-yl)piperazin-2-yl)acetonitrile]		C (Percent Degradation: C ≤ 35)	B (35 < B < 70)	B (35 < B < 70)	35 to 70%
C=CC(=O)N1CCN(c2nc(O[C@H](C)CN3CCC(OCCOCCOCCOCCOCCOc4ccc5c(c4)CN(C4CCC(=O)NC4=O)C5=O)CC3)nc3c2CCN(c2cc(O)cc4ccccc24)C3)CC1 (stereo partly drawn) [compound 425, 3-(5-((14-((1-((R)-2-((4-(4-acryloylpiperazin-1-yl)-7-(3-hydroxynaphthalen-1-yl)-5,6,7,8-tetrahydropyrido[3,4-d]pyrimidin-2-yl)oxy)propyl)piperidin-4-yl)oxy)-3,6,9,12-tetraoxatetradecyl)oxy)-1-oxoisoindolin-2-yl)piperidine-2,6-dione]		C (Percent Degradation: C ≤ 35)	C (Percent Degradation: C ≤ 35)	C (Percent Degradation: C ≤ 35)	
C=CC(=O)N1CCN(c2nc(OC[C@@H]3C[C@@H](OCCOCCOCCOCCOCCOc4ccc5c(c4)C(=O)N(C4CCC(=O)NC4=O)C5=O)CN3C)nc3c2CCN(c2cccc4ccccc24)C3)C[C@@H]1CC#N (stereo partly drawn) [compound 505, 2-((2S)-1-acryloyl-4-(2-(((2S,4R)-4-((14-((2-(2,6-dioxopiperidin-3-yl)-1,3-dioxoisoindolin-5-yl)oxy)-3,6,9,12-tetraoxatetradecyl)oxy)-1-methylpyrrolidin-2-yl)methoxy)-7-(naphthalen-1-yl)-5,6,7,8-tetrahydropyrido[3,4-d]pyrimidin-4-yl)piperazin-2-yl)acetonitrile]	C (Percent Degradation: C ≤ 35)	C (Percent Degradation: C ≤ 35)	C (Percent Degradation: C ≤ 35)		

Other lines, results leading:

Percent Degradation at Indicated Concentration (μM) (0.03 μM)	Percent Degradation at Indicated Concentration (μM) (0.1 μM)	Percent Degradation at Indicated Concentration (μM) (0.3 μM)	Percent Degradation at Indicated Concentration (μM) (1 μM)	Dmax	Structure (SMILES)
C (Percent Degradation: C ≤ 35)	C (Percent Degradation: C ≤ 35)	C (Percent Degradation: C ≤ 35)			C=CC(=O)N1CCN(c2nc(O[C@H](C)CN3CCC(OCCOCCOCCOCCOc4cc([C@H](C(=O)N5C[C@H](O)C[C@H]5C(=O)N[C@@H](C)c5ccc(-c6scnc6C)cc5)C(C)C)on4)CC3)nc3c(F)c(-c4cc(O)cc5ccccc45)c(Cl)cc23)CC1 [compound 530, (2S,4R)-1-((2R)-2-(3-(2-(2-(2-(2-((1-((2R)-2-((4-(4-acryloylpiperazin-1-yl)-6-chloro-8-fluoro-7-(3-hydroxynaphthalen-1-yl)quinazolin-2-yl)oxy)propyl)piperidin-4-yl)oxy)ethoxy)ethoxy)ethoxy)ethoxy)isoxazol-5-yl)-3-methylbutanoyl)-4-hydroxy-N-((S)-1-(4-(4-methylthiazol-5-yl)phenyl)ethyl)pyrrolidine-2-carboxamide]
C (Percent Degradation: C ≤ 35)	C (Percent Degradation: C ≤ 35)	C (Percent Degradation: C ≤ 35)			C=CC(=O)N1CCN(c2nc(O[C@H](C)CN3CCC(OCCOCCOCCOc4cc([C@H](C(=O)N5C[C@H](O)C[C@H]5C(=O)N[C@@H](C)c5ccc(-c6scnc6C)cc5)C(C)C)on4)CC3)nc3c(F)c(-c4cc(O)cc5ccccc45)c(Cl)cc23)CC1 [compound 529, (2S,4R)-1-((2R)-2-(3-(2-(2-(2-((1-((2R)-2-((4-(4-acryloylpiperazin-1-yl)-6-chloro-8-fluoro-7-(3-hydroxynaphthalen-1-yl)quinazolin-2-yl)oxy)propyl)piperidin-4-yl)oxy)ethoxy)ethoxy)ethoxy)isoxazol-5-yl)-3-methylbutanoyl)-4-hydroxy-N-((S)-1-(4-(4-methylthiazol-5-yl)phenyl)ethyl)pyrrolidine-2-carboxamide]
	C (Percent Degradation: C ≤ 35)	C (Percent Degradation: C ≤ 35)	C (Percent Degradation: C ≤ 35)		C=CC(=O)N1CCN(c2nc(O[C@H](C)CN3CCC(OCCOCCOCCOCCOc4cc(-c5scnc5C)ccc4CNC(=O)[C@@H]4C[C@@H](O)CN4C(=O)[C@H](c4cc(C)no4)C(C)C)CC3)nc3c2CCN(c2cc(O)cc4ccccc24)C3)CC1 [compound 443, (2S,4R)-N-(2-(2-(2-(2-(2-((1-((R)-2-((4-(4-acryloylpiperazin-1-yl)-7-(3-hydroxynaphthalen-1-yl)-5,6,7,8-tetrahydropyrido[3,4-d]dipyrimidin-2-yl)oxy)propyl)piperidin-4-yl)oxy)ethoxy)ethoxy)ethoxy)ethoxy)-4-(4-methylthiazol-5-yl)benzyl)-4-hydroxy-1-((S)-3-methyl-2-(3-methylisoxazol-5-yl)butanoyl)pyrrolidine-2-carboxamide]
C (Percent Degradation: C ≤ 35)	C (Percent Degradation: C ≤ 35)	C (Percent Degradation: C ≤ 35)			C=CC(=O)N1CCN(c2nc(O[C@H](C)CN3CCC(OCCOCCOCCOc4cc([C@@H](C(=O)N5C[C@H](O)C[C@H]5C(=O)N[C@@H](C)c5ccc(-c6scnc6C)cc5)C(C)C)on4)CC3)nc3c(F)c(-c4cc(O)cc5ccccc45)c(Cl)cc23)CC1 [compound 528, (2S,4R)-1-((2S)-2-(3-(2-(2-(2-((1-((2R)-2-((4-(4-acryloylpiperazin-1-yl)-6-chloro-8-fluoro-7-(3-hydroxynaphthalen-1-yl)quinazolin-2-yl)oxy)propyl)piperidin-4-yl)oxy)ethoxy)ethoxy)ethoxy)isoxazol-5-yl)-3-methylbutanoyl)-4-hydroxy-N-((S)-1-(4-(4-methylthiazol-5-yl)phenyl)ethyl)pyrrolidine-2-carboxamide]
